The nature of data set [1]: Absorbent body migration rate. Conditions: Example 2: agent coated on top sheet only, about 5 g/m^2; horse EDTA blood. The protocol:
In addition to the rewetting rate evaluation, the “absorbent body migration rate” was also measured as the time until migration of blood from the top sheet to the absorbent body after the second dropping of blood. The absorbent body migration rate is the time from […].

Data set [2] in a line: Water solubility in 100 g of water at 25° C. An excerpt: As used herein, the term “solubility” in regard to water solubility includes cases where the sample completely dissolves in deionized water to form a homogeneous mixture, and cases where the sample is completely emulsified. As used herein, “completely” means that no mass of the sample remains in the deionized water.

Data set [3] can be described thus: Rewetting rate of sanitary napkin. The note with it: Example 2: agent coated on top sheet only, about 5 g/m^2; horse EDTA blood.
Protocol: (obtained by adding ethylenediaminetetraacetic acid (hereunder, “EDTA”) to horse blood to prevent coagulation) was dropped through the hole using a pipette (once), and after 1 minute, 3 g of horse EDTA blood at 37±1° C. was again added dropwise through the acrylic board hole with a pipette (twice).
After the second dropping of blood, the acrylic board was immediately removed and 10 sheets of filter paper (50 mm×35 mm) were placed on the location where the blood had been dropped, and then a weight was placed thereover to a pressure of 30 g/cm^2. After 1 minute, the filter paper was removed and the “rewetting rate” was calculated by the following formula. Rewetting rate (%)=100×(filter paper mass after test−initial filter paper mass)/6
A short description of data set [4]: Surface tension of blood containing blood modifying agent (pendant drop method). Set-up: species or system sheep. The note with it: Amount 0.10 mass %; measuring temperature 35° C. As for the experimental part: The surface tension of blood containing a blood modifying agent was measured by the pendant drop method, using a Drop Master500 contact angle meter by Kyowa Interface Science Co., Ltd. The surface tension was measured after adding a prescribed amount of blood modifying agent to sheep defibrinated blood, and thoroughly shaking. The measurement was accomplished automatically with a device, and the surface tension γ was determined by the following formula (see FIG. 8). γ=g×ρ×(de)^2×1/H The density ρ was measured at the temperatures listed in Table 6, according to JIS K 2249-1995, “Density test methods and density/mass/volume conversion tables”, “5. Vibrating density test method”. The measurement was accomplished using a DA-505 by Kyoto Electronics Co., Ltd.

The source of these data is patent publication US9770526B2, “Absorbent article” (priority 2011, dated 2017).

Like-named read-outs stand apart in the source and are kept apart here.

Regarding `CCCCCCCC(=O)OCC(COC(=O)CCCCCCC)OC(=O)CCCCCCC` [No. 2-8, Glycerin and fatty acid triester with octanoic acid (C8) as the entire fatty acid portion], the “Absorbent body migration rate” value in data set [1] amounted to 3 s. For the same compound, the “Water solubility” value in data set [2] (in 100 g of water at 25° C., 24 hours, visual) is less than 0.05 g. Besides, in data set [3], the “Rewetting rate (%)” value turned out to be 0.3%. Regarding `CCCCC(CC)C(=O)OCC(C)(C)COC(=O)C(CC)CCCC` (stereo not drawn) [No. 2-15, Neopentylglycol di-2-ethylhexanoate], the “Absorbent body migration rate” value in data set [1] worked out at 5 s. Moreover, the “Water solubility” value in data set [2] is less than 0.05 g. The “Rewetting rate (%)” value in data set [3] is listed as 2.0%. For the compound `CCCCCCCCOC(=O)CCCCC(=O)OCCCCCCCC` [No. 2-16, Dioctyl adipate], in data set [1], the “Absorbent body migration rate” value stood at 6 s. The “Rewetting rate (%)” value in data set [3] is 1.7%.

On to `CCCCCCCCCCCCOC(=O)CCCCCCCCCCC` [No. 2-17, Ester of dodecanoic acid (C12) and dodecyl alcohol (C12)], for which the “Absorbent body migration rate” value in data set [1] turned out to be 5 s. For the same compound, in data set [3], the “Rewetting rate (%)” value amounted to 1.8%. Moreover, the “Surface tension (mN/m)” value in data set [4] was 58.8 mN/m.

On to `CCCCCCCCCCCCCC(=O)OCCCCCCCCCCCC` [No. 2-18, Ester of tetradecanoic acid (C14) and dodecyl alcohol (C12)], for which the “Absorbent body migration rate” value in data set [1] amounted to 4 s. Also, the “Rewetting rate (%)” value in data set [3] is given as 1.8%.

On to `CCCCCCCCCCCC(=O)OCC(O)CO` (stereo not drawn) [No. 2-31, lauric acid monoglyceride], for which the “Rewetting rate (%)” value in data set [3] is 6.2%.

In the case of “Glycerin and fatty acid diester with octanoic acid as the fatty acid [No. 2-12]”, in data set [1], the “Absorbent body migration rate” value was found to be 9 s. In addition, the “Rewetting rate (%)” value in data set [3] is 4.2%. The corresponding values for “Glycerin and fatty acid triester with 2-ethylhexanoic acid (CO as the entire fatty acid portion [No. 2-9]” are 3 s and 2.0%.

For Isopropyl citrate [No. 2-34], in data set [1], the “Absorbent body migration rate” value came to 5 s. Besides, the “Rewetting rate (%)” value in data set [3] came to 12.2%. For the compound Polybutylene glycol [No. 2-23], in data set [2], the “Water solubility” value is less than 0.05 g. As for “Polyoxybutylenepolyoxypropylene glycol [No. 2-24]”, in data set [2], the “Water solubility” value was less than 0.05 g. Consider Polypropylene glycol [No. 2-19], for which the “Water solubility” value in data set [2] is less than 0.05 g.

Consider Polypropylene glycol [No. 2-20], for which, in data set [2], the “Water solubility” value is on record as less than 0.05 g.

In the case of Polypropylene glycol [No. 2-21], the “Water solubility” value in data set [2] is less than 0.05 g.

Consider Polypropylene glycol [No. 2-22], for which the “Water solubility” value in data set [2] is on record as less than 0.05 g. Polypropylene glycol [No. 2-35]: in data set [2], the “Water solubility (g)” value is recorded as 0.05< g.
